MIC data for 8 molecules are collected here from ChEMBL document CHEMBL4038347, “Converting Teixobactin into a Cationic Antimicrobial Peptide (AMP)” (2017).

The structures appear in SMILES notation. Values after ≈ are worked out from the molar mass of the structure shown. Active and inactive are the calls of the source. The calls are words filed in the database; no cut-off is given here. Where a SMILES comes first, the peptide text is derived from it. Bridges are numbered along the chain shown (N, C = ends). [ ]: non-standard residue; d: D form. d(aIle) = CC[C@H](C)[C@@H](N)C(=O)O; dNMeF = CN[C@H](Cc1ccccc1)C(=O)O; Orn = NCCC[C@H](N)C(=O)O

Holding throughout (assay type): functional
For assay [1], the system named is Escherichia coli. The assay can be described thus: Antibacterial activity against Escherichia coli ATCC 25922 after 24 hrs by broth microdilution method. (In broth dilution the organism is exposed to a series of concentrations in liquid medium.)
Assay [2] has as its system Bacillus subtilis. The assay can be described thus: Antibacterial activity against Bacillus subtilis ATCC 6051 after 24 hrs by broth microdilution method. Conditions: ATCC 6051, 24 h.
In assay [3] the test system is Pseudomonas aeruginosa. Description: Antibacterial activity against Pseudomonas aeruginosa ATCC 27853 after 24 hrs by broth microdilution method.
Assay [4] deals with Staphylococcus aureus. The assay can be described thus: Antibacterial activity against Staphylococcus aureus ATCC 29213 after 24 hrs by broth microdilution method. Conditions: ATCC 29213, 24 h.

A word on the MIC: it is the lowest concentration that inhibits growth of the organism.

As to `CC[C@H](C)[C@H](NC(=O)[C@@H](Cc1ccccc1)NC)C(=O)N[C@@H](CO)C(=O)N[C@H](CN)C(=O)N[C@@H](C(=O)N[C@H](C(=O)N[C@@H](CN)C(=O)N[C@H]1C(=O)N[C@@H](CN)C(=O)N[C@@H](CCCCN)C(=O)N[C@@H]([C@@H](C)CC)C(=O)O[C@H]1C)[C@@H](C)CC)[C@@H](C)CC`, the MIC in assay [1] (ATCC 25922, 24 h) amounted to 64 µg/mL (≈ 53.9 µM); in assay [2], 16 µg/mL (≈ 13.5 µM); in assay [3] (ATCC 27853, 24 h), 64 µg/mL (≈ 53.9 µM); in assay [4], 64 µg/mL (≈ 53.9 µM).

Take `CC[C@H](C)[C@H](NC(=O)[C@@H](Cc1ccccc1)NC)C(=O)N[C@@H](CCCCN)C(=O)N[C@H](CCC(N)=O)C(=O)N[C@@H](C(=O)N[C@H](C(=O)N[C@@H](CCCCN)C(=O)N[C@H]1C(=O)N[C@@H](CCCCN)C(=O)N[C@@H](CCCCN)C(=O)N[C@@H]([C@@H](C)CC)C(=O)O[C@H]1C)[C@@H](C)CC)[C@@H](C)CC`: the MIC in assay [1] (ATCC 25922, 24 h) was found to be 128 µg/mL (≈ 94.4 µM); in assay [2], 8 µg/mL (≈ 5.9 µM); in assay [3] (ATCC 27853, 24 h), 256 µg/mL (≈ 189 µM); in assay [4], 256 µg/mL (≈ 189 µM).

As to `CC[C@H](C)[C@H](NC(=O)[C@@H](Cc1ccccc1)NC)C(=O)N[C@@H](CO)C(=O)N[C@H](CCC(N)=O)C(=O)N[C@@H](C(=O)N[C@H](C(=O)N[C@@H](CO)C(=O)N[C@H]1C(=O)N[C@@H](CCCCN)C(=O)N[C@@H](CCCN)C(=O)N[C@@H]([C@@H](C)CC)C(=O)O[C@H]1C)[C@@H](C)CC)[C@@H](C)CC`, the MIC in assay [1] (ATCC 25922, 24 h) came out at 32 µg/mL (≈ 25.4 µM); in assay [2] it was 0.5 µg/mL (≈ 0.397 µM); in assay [3] (ATCC 27853, 24 h), 64 µg/mL (≈ 50.8 µM); in assay [4] it was 2 µg/mL (≈ 1.59 µM).

`CC[C@H](C)[C@H](NC(=O)[C@@H](Cc1ccccc1)NC)C(=O)N[C@@H](CO)C(=O)N[C@H](CCC(N)=O)C(=O)N[C@@H](C(=O)N[C@H](C(=O)N[C@@H](CO)C(=O)N[C@H]1C(=O)N[C@@H](C)C(=O)N[C@@H](CCN=C(N(C)C)N(C)C)C(=O)N[C@@H]([C@@H](C)CC)C(=O)O[C@H]1C)[C@@H](C)CC)[C@@H](C)CC`: the MIC result in assay [1] and in assay [3] was “inactive” throughout. Further, the MIC worked out at 4 µg/mL (≈ 3.11 µM) in assay [2] and 64 µg/mL (≈ 49.7 µM) in assay [4].

`CC[C@H](C)[C@H](NC(=O)[C@@H](Cc1ccccc1)NC)C(=O)N[C@@H](CCCCN)C(=O)N[C@H](CCC(N)=O)C(=O)N[C@@H](C(=O)N[C@H](C(=O)N[C@@H](CO)C(=O)N[C@H]1C(=O)N[C@@H](C)C(=O)N[C@@H](CCCN)C(=O)N[C@@H]([C@@H](C)CC)C(=O)O[C@H]1C)[C@@H](C)CC)[C@@H](C)CC`: the MIC worked out at 64 µg/mL (≈ 51.5 µM) in assay [1] (ATCC 25922, 24 h); 2 µg/mL (≈ 1.61 µM) in assay [2]; 256 µg/mL (≈ 206 µM) in assay [3] (ATCC 27853, 24 h); 2 µg/mL (≈ 1.61 µM) in assay [4].

With `CC[C@H](C)[C@H](NC(=O)[C@@H](Cc1ccccc1)NC)C(=O)N[C@@H](CO)C(=O)N[C@H](CCC(N)=O)C(=O)N[C@@H](C(=O)N[C@H](C(=O)N[C@@H](CCCCN)C(=O)N[C@H]1C(=O)N[C@@H](CCCCN)C(=O)N[C@@H](CCCCN)C(=O)N[C@@H]([C@@H](C)CC)C(=O)O[C@H]1C)[C@@H](C)CC)[C@@H](C)CC`, the MIC in assay [1] (ATCC 25922, 24 h) was 128 µg/mL (≈ 97.4 µM); in assay [2], 8 µg/mL (≈ 6.09 µM); in assay [3] (ATCC 27853, 24 h) it was 256 µg/mL (≈ 195 µM); in assay [4], 128 µg/mL (≈ 97.4 µM).

Regarding `CC[C@H](C)[C@H](NC(=O)[C@@H](Cc1ccccc1)NC)C(=O)N[C@@H](CCCCN)C(=O)N[C@H](CCCCN)C(=O)N[C@@H](C(=O)N[C@H](C(=O)N[C@@H](CO)C(=O)N[C@H]1C(=O)N[C@@H](C)C(=O)N[C@@H](CCCN)C(=O)N[C@@H]([C@@H](C)CC)C(=O)O[C@H]1C)[C@@H](C)CC)[C@@H](C)CC` (H-[dNMeF]IK[dK][d(aIle)]IS[dT]A[Orn]I; ester 8-C), the MIC in assay [1] (ATCC 25922, 24 h) was 64 µg/mL (≈ 51.5 µM); in assay [2], 4 µg/mL (≈ 3.22 µM); in assay [3] (ATCC 27853, 24 h), 64 µg/mL (≈ 51.5 µM); in assay [4], 16 µg/mL (≈ 12.9 µM).

As for `CC[C@H](C)[C@H](NC(=O)[C@@H](Cc1ccccc1)NC)C(=O)N[C@@H](CO)C(=O)N[C@H](CCC(N)=O)C(=O)N[C@@H](C(=O)N[C@H](C(=O)N[C@@H](CN)C(=O)N[C@H]1C(=O)N[C@@H](CN)C(=O)N[C@@H](CCCCN)C(=O)N[C@@H]([C@@H](C)CC)C(=O)O[C@H]1C)[C@@H](C)CC)[C@@H](C)CC`, the MIC in assay [1] (ATCC 25922, 24 h) worked out at 128 µg/mL (≈ 104 µM); in assay [2], 8 µg/mL (≈ 6.5 µM); in assay [3] (ATCC 27853, 24 h) it was 128 µg/mL (≈ 104 µM); in assay [4], 32 µg/mL (≈ 26 µM).
